Test results from US20240246960A1 (adMare Therapeutics Society, priority 2021, published 2024).

Assays:
[1] = Microsomal stability assay, human liver microsomes; type: in vitro ADME; details: for microsomal CLint at 0.1 uM: both sexes, human, liver microsomes, pH 7.4, 0.1 mg/mL microsomes, 0.1 uM compound
Experimental: Samples were then mixed and centrifuged. Supernatants were used for HPLC-MS/MS analysis. […] Peak areas corresponding to the test compound were recorded.

[2] = system: FaDu tumour xenograft; experiment: In vivo clonogenic survival (CS-ER), FaDu tumour xenografts ± radiation; details: Rag2M mice
Experimental: FaDu tumour xenograft-bearing Rag2M mice were treated with single administrations of test compounds at indicated doses±radiation as indicated, at time 0.
Mice were irradiated at 1 h post compound administration (unless otherwise indicated), with 300 KV X-rays and a 10 mA current from a Precision XRAD 300 machine (USA) with a beam-hardening filter (2 mm Al+0.25 mm Cu+0.75 mm Sn) and an adjustable site to specimen distance (SSD) at a dose of 8-10 Gy, delivered at a rate of ˜1.05 Gy/min.
Mice were terminated at times after irradiation as indicated, and tumour tissues excised. A portion of tumour approximately 300-500 mg was briefly minced using sterile scissors and placed in a pre-weighed gentleMACS C tube (Miltenyi Biotec cat #130-093-237) and weighed with combined tumour+tube mass recorded. A 5 mL aliquot of enzyme cocktail comprising of trypsin/DNase/collagenase/EDTA-Na2 in PBS (1 mg/ml trypsin+0.26 mg/ml DNase+0.21 mg/ml collagenase+2 mM EDTA-Na2) was added to the tube, which is then run on the gentleMACS Dissociator disaggregation system. Tubes were then incubated at 37° C. and continually rotated for 20 min before again running on the gentleMACS Dissociator program. Samples were then diluted with 5 ml MEM medium containing 5% FBS and filtered (Falcon cell strainer 100 μm, cat #352360). After centrifugation (1100 rpm for 6 minutes at 4° C.) supernatant was aspirated and the cells resuspended in 4 ml cold growth medium (MEM+10% FBS)+50 ul DNase (5 mg/ml DNase solution). Cell numbers were counted from the same cell solution using a hemacytometer. Appropriate dilutions (control: 10,000 cells/ml; 8Gy: 400,000 cells/ml; drug+radiation treated; 500,000 cells/ml) were made and cells then plated in triplicate: control: 100 μl and 300 μl (1000 and 3000 cells/6 cm tissue culture plate); 8Gy: 30 μl, 105 μl and 350 μl (12000, 42000 cells/6 cm plates and 140000 cells/10 cm plate); drug+8Gy: 70 μl, 300 μl, 1.2 ml (35000 and 150000 cells/6 cm plates and 600000 cells/10 cm plates—only duplicate). Plates were incubated at 37° C. (in a 5% CO2, 5% O2 and balance N2 environment) for 14 days. For a final and accurate automated live-cell counting a solution of Hoechst33342 (0.01 mg/ml)+Propidium Iodide (0.004 mg/ml) in 0.9% saline was mixed with an appropriate cell number dilution of the samples in 96 well plates (50 ul staining solution+50 ul cell suspension of 10000 cells/ml) and images are taken of the wells and cell numbers are calculated by a computer program.
After 14 days plates were removed from the incubator, rinsed with PBS and stained with cold 2 g/L Malachite green oxalate salt solution (Sigma-Aldrich, cat #M6880) for 30 minutes at room temperature. Plates were rinsed with distilled water and dried. Pictures were obtained of the plates and colonies consisting of 50 or more cells were counted using a Stuart Scientific colony counter.
All plates with colonies were analyzed except when colony numbers were so high that the edges of individual colonies could not be determined accurately. Plating efficiency (PE) of each tumour sample was calculated first: PE is a ratio of the number of colonies to the number of cells seeded (sum of all the colonies countable in all the plates of the same sample divided by the sum of cells plated in the same plates). The PE of control tumours was averaged for the calculation of surviving fraction (SF): SF is based on the number of colonies formed in drug and/or radiation treated cells relative to that of untreated control (PE of treated tumor sample divided by PE of control). All treated data points were compared separately to the average of the controls. Finally, a Clonogenic Survival Enhancement Ratio (CS-ER) was calculated: the SF of irradiated control groups were divided by the SF of treatment groups to determine treatment group-specific CS-ER values, and these were assigned scores based on defined response ranges: values >6=A, 4-6=B, <4=C.

[3] = system: FaDu tumour xenograft; experiment: In vivo tumour growth delay (TGD-ER), FaDu tumour xenografts + radiation; details: PO
Experimental: FaDu tumour xenograft-bearing animals were monitored for tumour growth and once average tumour size reached approximately 100-250 mm3, animals were assigned to treatment cohorts using stratified randomization. Animals were weighted and treated with doses of test compounds at 10, 30 or 100 mg/kg PO from 1, 3 or 10 mg/mL formulations at time 0.
For BID dosing regimens, at 8 h following the first injection, animals were again administered with test compound at the same dose as their previous administration. Animals were weighed and had tumours measured using calipers three times weekly until the endpoint of maximum tumour volume, 1000 mm3, was reached and animals were euthanized. Tumour volumes were calculated according to the equation L×W^2/2 with the length (mm) being the longer axis of the tumour; in the case that no tumour was palpable, tumour volumes were recorded as 0 mm^3.
Data were calculated as tumour growth normalized to day 0 measurements, with time to tumour doubling determined. Average time to tumour doubling for each group was used to determine a Tumour Growth Delay Enhancement Ratio (TGD-ER): the time to doubling for treatment groups were divided by the time to doubling for irradiation-alone groups to determine group-specific TGD-ER values, and these were assigned scores based on defined response ranges: values >2.5=A, 1-2.5=B, <1=C.

| Compound | Microsomal Stability (human) % rem. 60 min [1] | microsomal CLint at 0.1 uM [1] [µL/min/mg] | CS-ER Range Score ([2]; 30 mpk + 8 Gy, 2 h) | CS-ER Range Score ([2]; 30 mpk + 8 Gy, 4 h) | further results |
| --- | --- | --- | --- | --- | --- |
| c1cnc(N[C@H]2CC[C@@H](Oc3nc(N4CCOCC4)cc4ncccc34)CC2)nc1 [Compound 20a, N-((1s,4s)-4-((7-Morpholino-1,6-naphthyridin-5-yl)oxy)cyclohexyl)pyrimidin-2-amine] | F (% remaining = 25-50%) | > 116 |  |  |  |
| O=C(N[C@H]1CC[C@@H](Oc2nc(N3CCOCC3)cc3ncccc23)CC1)c1ccncc1 [Compound 113, N-((1s,4s)-4-((7-morpholino-1,6-naphthyridin-5-yl)oxy)cyclohexyl)isonicotinamide] | F (% remaining = 25-50%) | > 116 | C (<4=C) | B (4-6=B) |  |
| O=C(N[C@H]1CC[C@@H](Oc2nc(N3CCOCC3)cc3ncccc23)CC1)c1ccnnc1 [Compound 121, N-((1s,4s)-4-((7-morpholino-1,6-naphthyridin-5-yl)oxy)cyclohexyl)pyridazine-4-carboxamide] | G (% remaining = 50-75%) | < 116 |  | C (<4=C) |  |
| O=C(N[C@H]1CC[C@@H](Oc2nc(N3CCOCC3)cc3ncccc23)CC1)c1ncccn1 [Compound 123, N-((1s,4s)-4-((7-Morpholino-1,6-naphthyridin-5-yl)oxy)cyclohexyl)pyrimidine-2-carboxamide] | H (% remaining = 75-100%) | < 116 |  |  | CS-ER Range Score ([2]; 100 mpk + 10 Gy, 0.5 h): C (<4=C); CS-ER Range Score ([2]; 100 mpk + 10 Gy, 4 h): A (values >6=A); CS-ER Range Score ([2]; 100 mpk + 10 Gy, 8 h): A (values >6=A); CS-ER Range Score ([2]; 100 mpk + 10 Gy, 24 h): A (values >6=A); TGD-ER Range Score ([3]; 10 mpk + 10 Gy): B (1-2.5=B); TGD-ER Range Score ([3]; 30 mpk + 10 Gy): B (1-2.5=B); TGD-ER Range Score ([3]; 100 mpk + 10 Gy): A (values >2.5=A); TGD-ER Range Score ([3]; (30 mpk + 2 Gy) Q5D): A (values >2.5=A); TGD-ER Range Score ([3]; (30 mpk) Q5D): C (<1=C) |
| COc1cnc(N[C@H]2CC[C@@H](Oc3nc(N4CCOCC4)cc4ncc(NS(C)(=O)=O)cc34)CC2)nc1 [Compound 203, N-(5-(((1s,4s)-4-((5-methoxypyrimidin-2-yl)amino)cyclohexyl)oxy)-7-morpholino-1,6-naphthyridin-3-yl)methanesulfonamide] |  |  | B (4-6=B) | B (4-6=B) |  |

The next lines start with results.

| Microsomal Stability (human) % rem. 60 min [1] | microsomal CLint at 0.1 uM [1] [µL/min/mg] | Compound | CS-ER Range Score ([2]; 30 mpk + 8 Gy, 2 h) | CS-ER Range Score ([2]; 30 mpk + 8 Gy, 4 h) | further results |
| --- | --- | --- | --- | --- | --- |
| F (% remaining = 25-50%) | > 116 | O=C(N[C@H]1CC[C@@H](Oc2nc(N3CCOCC3)cc3ncccc23)CC1)c1cc[nH]c1 [Compound 140, N-((1s,4s)-4-((7-morpholino-1,6-naphthyridin-5-yl)oxy)cyclohexyl)-1H-pyrrole-3-carboxamide] |  | B (4-6=B) | TGD-ER Range Score ([3]; 30 mpk BID + 10 Gy): C (<1=C) |
| F (% remaining = 25-50%) | > 116 | O=C(N[C@H]1CC[C@@H](Oc2nc(N3CCOCC3)cc3ncccc23)CC1)c1ncco1 [Compound 142, N-((1s,4s)-4-((7-morpholino-1,6-naphthyridin-5-yl)oxy)cyclohexyl)oxazole-2-carboxamide] | B (4-6=B) | B (4-6=B) |  |
| G (% remaining = 50-75%) | < 116 | O=C(N[C@H]1CC[C@@H](Oc2nc(N3CCOCC3)cc3ncccc23)CC1)c1c[nH]cn1 [Compound 144, N-((1s,4s)-4-((7-morpholino-1,6-naphthyridin-5-yl)oxy)cyclohexyl)-1H-imidazole-4-carboxamide] | C (<4=C) | B (4-6=B) |  |
| F (% remaining = 25-50%) | > 116 | CS(=O)(=O)Nc1cnc2cc(N3CCOCC3)nc(O[C@H]3CC[C@@H](Nc4ncccn4)CC3)c2c1 [Compound 185, N-(7-morpholino-5-(((1s,4s)-4-(pyrimidin-2-ylamino)cyclohexyl)oxy)-1,6-naphthyridin-3-yl)methanesulfonamide] |  | B (4-6=B) | TGD-ER Range Score ([3]; 10 mpk BID + 5 Gy): B (1-2.5=B); TGD-ER Range Score ([3]; 30 mpk BID + 5 Gy): B (1-2.5=B); TGD-ER Range Score ([3]; 100 mpk BID + 5 Gy): B (1-2.5=B) |
